In ChEMBL document CHEMBL1140814 (Bioorg Med Chem Lett, 2008):

Experiments:
[1] = target: T1, Muscarinic acetylcholine receptor M2 (Homo sapiens, UniProt P08172); assay: Displacement of [3H]NMS from human cloned muscarinic M2 receptor expressed in CHO cells; format: cell-based
T1 sequence (P08172 whole entry): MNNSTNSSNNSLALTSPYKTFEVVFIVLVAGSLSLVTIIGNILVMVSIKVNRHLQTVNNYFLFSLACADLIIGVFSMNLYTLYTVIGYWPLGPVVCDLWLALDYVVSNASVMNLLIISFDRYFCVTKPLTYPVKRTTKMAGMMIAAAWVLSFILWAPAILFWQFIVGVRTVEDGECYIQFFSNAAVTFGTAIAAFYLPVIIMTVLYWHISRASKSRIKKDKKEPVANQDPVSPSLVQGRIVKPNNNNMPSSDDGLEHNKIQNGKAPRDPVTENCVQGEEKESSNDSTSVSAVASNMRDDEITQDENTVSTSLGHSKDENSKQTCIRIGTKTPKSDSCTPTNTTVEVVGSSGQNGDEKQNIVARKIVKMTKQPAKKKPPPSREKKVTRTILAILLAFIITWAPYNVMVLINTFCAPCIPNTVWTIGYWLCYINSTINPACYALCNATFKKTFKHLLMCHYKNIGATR

[2] = Intrinsic activity at muscarinic M2 receptor in guinea-pig stimulated left atria assessed as ratio of agonist activity to activity of arecaidine propargyl ester; format: functional, Cavia porcellus
[3] = target: Muscarinic acetylcholine receptor M3 (Cavia porcellus) (UniProt Q8VH26); assay: Intrinsic activity at muscarinic M3 receptor in guinea-pig ileum assessed as ratio of agonist activity to activity of arecaidine propargyl ester; format: functional, tissue-based
Chain of Muscarinic acetylcholine receptor M3 (Cavia porcellus) (Q8VH26 1-587): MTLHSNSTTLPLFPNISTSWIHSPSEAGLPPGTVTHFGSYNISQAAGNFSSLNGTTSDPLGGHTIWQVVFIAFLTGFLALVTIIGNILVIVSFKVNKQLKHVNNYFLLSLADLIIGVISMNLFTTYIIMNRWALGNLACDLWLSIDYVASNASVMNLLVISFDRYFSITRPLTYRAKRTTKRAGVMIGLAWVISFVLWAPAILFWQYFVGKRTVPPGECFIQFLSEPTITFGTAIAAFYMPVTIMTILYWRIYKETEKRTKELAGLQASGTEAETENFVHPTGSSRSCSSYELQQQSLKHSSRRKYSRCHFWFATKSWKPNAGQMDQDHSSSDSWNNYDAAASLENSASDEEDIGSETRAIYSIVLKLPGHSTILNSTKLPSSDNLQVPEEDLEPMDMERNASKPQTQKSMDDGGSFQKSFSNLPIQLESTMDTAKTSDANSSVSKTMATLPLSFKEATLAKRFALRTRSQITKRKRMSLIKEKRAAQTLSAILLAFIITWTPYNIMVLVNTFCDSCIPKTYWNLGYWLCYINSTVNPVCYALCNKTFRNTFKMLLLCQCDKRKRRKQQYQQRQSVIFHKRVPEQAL

[4] = target: T2, Muscarinic acetylcholine receptor M5 (Homo sapiens, UniProt P08912); assay: Displacement of [3H]NMS from human cloned muscarinic M5 receptor expressed in CHO cells; format: cell-based
T2 sequence (P08912 whole entry): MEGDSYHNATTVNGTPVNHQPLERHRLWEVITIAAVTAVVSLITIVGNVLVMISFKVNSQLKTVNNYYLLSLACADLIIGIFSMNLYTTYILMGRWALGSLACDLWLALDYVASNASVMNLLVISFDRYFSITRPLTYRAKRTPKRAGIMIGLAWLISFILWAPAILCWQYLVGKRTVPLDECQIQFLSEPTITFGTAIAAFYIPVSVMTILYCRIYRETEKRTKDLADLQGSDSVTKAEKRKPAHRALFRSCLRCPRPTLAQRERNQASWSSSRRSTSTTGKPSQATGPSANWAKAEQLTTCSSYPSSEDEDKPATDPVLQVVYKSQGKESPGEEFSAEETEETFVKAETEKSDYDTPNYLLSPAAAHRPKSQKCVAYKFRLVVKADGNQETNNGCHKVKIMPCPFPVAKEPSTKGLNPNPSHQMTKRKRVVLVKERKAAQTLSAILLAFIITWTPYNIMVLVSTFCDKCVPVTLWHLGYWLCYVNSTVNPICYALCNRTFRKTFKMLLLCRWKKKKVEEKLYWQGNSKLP

[5] = Antagonist activity at muscarinic M1 receptor in rabbit vas deferens up to 10 uM; format: functional, Oryctolagus cuniculus
[6] = target: T3, Muscarinic acetylcholine receptor M4 (Homo sapiens, UniProt P08173); assay: Displacement of [3H]NMS from human cloned muscarinic M4 receptor expressed in CHO cells; format: cell-based
T3 sequence (P08173 whole entry): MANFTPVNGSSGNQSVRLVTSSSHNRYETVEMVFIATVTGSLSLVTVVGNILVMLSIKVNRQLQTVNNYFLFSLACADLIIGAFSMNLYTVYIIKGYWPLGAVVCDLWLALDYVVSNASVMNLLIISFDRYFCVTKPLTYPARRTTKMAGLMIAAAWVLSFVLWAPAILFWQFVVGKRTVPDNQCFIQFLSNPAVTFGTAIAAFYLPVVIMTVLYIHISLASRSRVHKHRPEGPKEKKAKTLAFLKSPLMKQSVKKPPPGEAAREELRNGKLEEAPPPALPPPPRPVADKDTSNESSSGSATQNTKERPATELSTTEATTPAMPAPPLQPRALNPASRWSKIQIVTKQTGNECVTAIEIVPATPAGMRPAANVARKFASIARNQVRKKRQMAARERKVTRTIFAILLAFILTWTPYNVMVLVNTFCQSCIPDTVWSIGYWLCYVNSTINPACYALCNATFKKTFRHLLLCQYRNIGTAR

[7] = Intrinsic activity at muscarinic M1 receptor in rabbit stimulated vas deferens assessed as ratio of agonist activity to activity of McN-A-343; format: functional, Oryctolagus cuniculus
[8] = Intrinsic activity at muscarinic M4 receptor in guinea-pig lung strips assessed as ratio of agonist activity to activity of arecaidine propargyl ester; format: functional, Cavia porcellus

Row | SMILES | Ki [1] | Intrinsic activity [2] | pD2 [3] | Ki [4] | pD2 [5] | Ki [6] | Intrinsic activity [7] | pD2 [7] | Intrinsic activity [8] | pD2 [8] | pD2 [2] | Intrinsic activity [3]
1 | C[C@@H]1COC[C@H](C[N+](C)(C)C)O1.[I-] | 6.92 µM | 1 | 6.53 | 44.7 µM | <5 | 69.2 µM | – | – | – | – | – | –
2 | C[C@H]1COC[C@@H](C[N+](C)(C)C)O1.[I-] | 1.26 µM | – | 7.65 | 4.57 µM | – | 9.77 µM | 1 | 6.78 | 1 | – | – | –
3 | C[C@@H]1COC[C@@H](C[N+](C)(C)C)O1.[I-] | 61.7 µM | 0.62 | 4.54 | 87.1 µM | – | > 100 µM | – | – | 0.42 | 5.22 | 5.27 | –
4 | CC1COCC(C[N+](C)(C)C)O1.[I-] (racemic; form 2) | 4.9 µM | – | – | 67.6 µM | – | 87.1 µM | – | 5.08 | – | – | – | –
5 | C[C@H]1COC[C@H](C[N+](C)(C)C)O1.[I-] | 5.25 µM | 0.9 | 6.26 | – | – | 45.7 µM | – | – | 0.77 | 5.79 | 6.18 | –
6 | CC1COCC(C[N+](C)(C)C)O1 (racemic; form 1) | – | – | 7.34 | – | – | – | – | – | – | – | – | –
7 | CC1OC(C[N+](C)(C)C)CC1O (racemic) | – | 1 | 7.29 | – | – | – | – | – | – | – | 6.72 | 1
8 | CC1COCC(C[N+](C)(C)C)O1.[I-] (racemic; form 1) | 2.09 µM | 1 | – | 7.76 µM | – | 11.5 µM | 1 | 5.65 | – | – | – | –
